Assay: Solubilisation of resveratrol in the self emulsifying cosmetic base (mixing at 30-40° C.)
Assay type: physicochemical
Details: Example 2, no co-emulsifier, continuous mixing at 30-40° C.
Experimental: A self emulsifying cosmetic base exempt of co-emulsifier was prepared by dissolving resveratrol in trilaureth-4 phosphate by continuous mixing at moderate temperature (30-40° C.). […] In all cases spontaneously an aqueous emulsion was formed which upon separation (after >1 week) could be easily re-formed by mere shaking.

appearance after dissolving resveratrol in trilaureth-4 phosphate: clear solution
Compound: Oc1ccc(/C=C/c2cc(O)cc(O)c2)cc1 [resveratrol]
